How the values were obtained:
[1] = test system: Human melanocytes; experiment: Melanin determination in treated melanocytes; type: cell-based; conditions: for % MELANINE CONTENT: determined as in examples 4 and 5, concentration not given
Description: (§1) Day 1—Human melanocytes are rise by trypsinization and centrifuge at 1500 rpm (433×g) in an Allegra X-22R (Beckman Coulter) centrifuge during 5 minutes, and then are resuspended in 1 ml of a complete culture medium to count the number of cells. A volume of 10 μl of the cells solution was dyed with Trypan Blue colorant and the cells are counted with a hemocytometer. Then a cell solution is prepared at a concentration of 2.5×10^5 cells/ml in a complete medium and 100 μl of the cell suspension is seed in wells of 96 well plates. The plates are incubated at 37° C. in a 5% CO2 atmosphere.
Day 2—The seed cells are washed and treated with the different products in basal conditions and promelanogenic conditions. For that, the medium is removed of wells and 100 μl of the products in basal medium with 0.5% of FBS is added. Previously, the test products are solubilised in the same medium. Arbutin is solubilised in ethanol.
The products are tested at 3 different concentrations in the presence and absence of the melanogenic inductor (100 μM), i.e. isobutyl methyl-xantine (IBMX). The plates are incubated 37° C. and 5% CO2 during 5 days. The experiments are carried out using 4 wells per condition. The melanin accumulation inside the cells is monitored daily by optical microscopy.
Days 3 and 4—All treatments are renewed every 24 hours.
In order to determine the melanin content in cells treated as described in example 4, the medium is removed from each well and cells are washed with PBS 1N and incubated during 3 days at 37° C. facilitating the solubilisation of the melanin in NaOH.
Day 7—Once the solubilisation of melanin is complete, 50 μl de H2O2 MilliQ is added per well and the content is determined by absorbance using a Synergy II (Biotek Instruments Inc., Winooski, USA) at 390 nm. The mode and SD is calculated for each
The activity of several peptides of formula (II) (listed in table 3 below) to reduce melanine was determined as explained in example 5 after treating the cells as explained in example 4.

[2] = test system: cultured cells; conditions: cited from earlier work
[3] = test system: facial hyperpigmentation; conditions: clinical studies; cited from earlier work
[4] = test system: cultured melanocytes; conditions: cited from earlier work
[5] = test system: Human dermal fibroblasts; experiment: Cytotoxicity assay (MTT); type: cell-based; conditions: positive control 0.1% SDS, 48 h
Description: (§2) Human dermal fibroblasts and human keratinocytes were used. The isolated cells were cultured in DMEM culture medium supplemented with 10% FCS and were incubated at 37° C. for maintenance treatment. Untreated cells were used as negative control. The positive control was 0.1% SDS. The microcapsules as obtained in Example 1 were tested in the DMEM culture medium at two concentrations: 0.03% and 0.3%. These weight percentages refer to the weight of the microcapsule in relation to the total weight.
(§3) Cells were seeded at 20000 cells per well in a 96-well plate. 24 hours after seeding, cells were incubated under the conditions described above. After 48 h of incubation at 37° C., the culture medium was removed and the MTT reagent was added. Cells were incubated 2 hours at 37° C. DMSO was then added and the absorbance of the formed formazan salt was measured at A 570 nm. Lower absorbance values correspond to cells with lower metabolic activity, which correlates with an increased damage and, therefore, with an increased cytotoxic effect. Thus, the amount of living cells is proportional to the amount of formazan produced.

[6] = test system: human keratinocytes; experiment: Cytotoxicity assay (MTT); type: cell-based; conditions: positive control 0.1% SDS, 48 h
Description: as §2, §3

[7] = test system: Human melanocytes; experiment: Cell viability of treated melanocytes (CCK-8); type: cell-based; conditions: IBMX 100 μM alone, control = 100
Description: as §1
Day 2—The seed cells are washed and treated with the different products in basal conditions and promelanogenic conditions. […]
The products are tested at 3 different concentrations in the presence and absence of the melanogenic inductor (100 μM), i.e. isobutyl methyl-xantine (IBMX). […] The melanin accumulation inside the cells is monitored daily by optical microscopy. […]
Day 5—Determination of cell viability: In order to determine de number of viable cells, 10 μl of CCK-8 (WST-8) is added in each well. The plates are incubated at 37° C. during 1 hour and the absorbance is measured at 450 nm using Synergy II multimode (Biotek Instruments Inc., Winooski, Estados Unidos). The mode and SD is calculated for each concentration using Microsoft Excel application (see FIG. 2 and table 2)

Q: With “Palm-Ile-Ser-Leu-Leu-Asp-Ala-Gln-Ser-NH2 (ISLLDAQS; HELM PEPTIDE1{[CCCCCCCCCCCCCCCC(=O)[*:2]].I.S.L.L.D.A.Q.S.[am]}$$$$V2.0; SMILES CCCCCCCCCCCCCCCC(=O)N[C@H](C(=O)N[C@@H](CO)C(=O)N[C@@H](CC(C)C)C(=O)N[C@@H](CC(C)C)C(=O)N[C@@H](CC(=O)O)C(=O)N[C@@H](C)C(=O)N[C@@H](CCC(N)=O)C(=O)N[C@@H](CO)C(N)=O)[C@@H](C)CC) [peptide of formula (II)]” as the compound, how does the “% MELANINE CONTENT” value [1] read?
A: 85%

Q: For “Ac-Ile-Ser-Leu-Leu-Asp-(d)Ala-Gln-Ser-NH2 (ISLLDAQS; HELM PEPTIDE1{[ac].I.S.L.L.D.[dA].Q.S.[am]}$$$$V2.0; SMILES CC[C@H](C)[C@H](NC(C)=O)C(=O)N[C@@H](CO)C(=O)N[C@@H](CC(C)C)C(=O)N[C@@H](CC(C)C)C(=O)N[C@@H](CC(=O)O)C(=O)N[C@H](C)C(=O)N[C@@H](CCC(N)=O)C(=O)N[C@@H](CO)C(N)=O) [peptide of formula (II)]”, which “% MELANINE CONTENT” value [1] is on record?
A: 80%

Q: For “Ac-Ile-Ser-(d)Leu-Leu-Asp-(d)Ala-Gln-Ser-NH2 (ISLLDAQS; HELM PEPTIDE1{[ac].I.S.[dL].L.D.[dA].Q.S.[am]}$$$$V2.0; SMILES CC[C@H](C)[C@H](NC(C)=O)C(=O)N[C@@H](CO)C(=O)N[C@H](CC(C)C)C(=O)N[C@@H](CC(C)C)C(=O)N[C@@H](CC(=O)O)C(=O)N[C@H](C)C(=O)N[C@@H](CCC(N)=O)C(=O)N[C@@H](CO)C(N)=O) [peptide of formula (II)]”, which “% MELANINE CONTENT” value [1] is on record?
A: 68%

Q: Which results are given for `NC(=O)c1cccnc1` [Niacinamide]?
A: melanosome transfer [2]: inhibit melanosome transfer in cultured cells; appearance of hyperpigmented spots [3]: reduce the appearance of hyperpigmented spots

Q: For `C=CCCCCCCCCC(=O)N[C@@H](Cc1ccccc1)C(=O)O` [Sepiwhite, N-undecyl-10-enoyl-L-phenylalanine], which melanin production [4] is on record?
A: reduces melanin production in cultured melanocytes

Q: Which “% MELANINE CONTENT” value [1] does the source give for “Palm-Ile-Ser-Leu-Leu-Asp-(d)Ala-Gln-Ser-NH2 (ISLLDAQS; HELM PEPTIDE1{[CCCCCCCCCCCCCCCC(=O)[*:2]].I.S.L.L.D.[dA].Q.S.[am]}$$$$V2.0; SMILES CCCCCCCCCCCCCCCC(=O)N[C@H](C(=O)N[C@@H](CO)C(=O)N[C@@H](CC(C)C)C(=O)N[C@@H](CC(C)C)C(=O)N[C@@H](CC(=O)O)C(=O)N[C@H](C)C(=O)N[C@@H](CCC(N)=O)C(=O)N[C@@H](CO)C(N)=O)[C@@H](C)CC) [peptide of formula (II)]” here?
A: 78%

Q: With `CCCCCCCCCCCCOS(=O)(=O)[O-].[Na+]` [SDS] as the compound, how does the “% cell viability” value [5] read?
A: 30.0%

Q: What about the “% cell viability” value [6] of the same compound?
A: 13.0%

Q: With “Palm-Ile-Ser-(d)Leu-Leu-Asp-(d)Ala-Gln-Ser-NH2 (ISLLDAQS; HELM PEPTIDE1{[CCCCCCCCCCCCCCCC(=O)[*:2]].I.S.[dL].L.D.[dA].Q.S.[am]}$$$$V2.0; SMILES CCCCCCCCCCCCCCCC(=O)N[C@H](C(=O)N[C@@H](CO)C(=O)N[C@H](CC(C)C)C(=O)N[C@@H](CC(C)C)C(=O)N[C@@H](CC(=O)O)C(=O)N[C@H](C)C(=O)N[C@@H](CCC(N)=O)C(=O)N[C@@H](CO)C(N)=O)[C@@H](C)CC) [peptide of formula (II)]” as the compound, how does the “% MELANINE CONTENT” value [1] read?
A: 65%

Q: For “Ac-Ile-Ser-Leu-Leu-Asp-Ala-Gln-Ser-NH2 (Ac-ISLLDAQS-NH2) [peptide of formula (II)]”, which “% MELANINE CONTENT” value [1] is on record?
A: 87%

Q: With `CC(C)Cn1c(=O)n(C)c(=O)c2[nH]cnc21` [Isobutyl methyl-xantine (IBMX), Isobutyl methyl-xantine, reference compound] as the compound, how does the “Melanin content (%)” value ([1]; IBMX 100 μM alone, control = 100) read?
A: 174 ± 12%

Q: What about the Cell viability [7] of the same compound?
A: 90%

— patent US20160250128A1, “TARGETED CAPSULES FOR THE DELIVERY OF SKIN WHITENING AGENTS IN THE SKIN” (INFINITEC ACTIVOS, S.L., priority 2013, published 2016)
